In patent US9403847B2, “Substituted heteroaryl fused derivatives as P13K inhibitors” (Incyte Corporation, priority 2009, dated 2016):
Where a name gives a salt, the structure may show the parent alone.

Experiments:
PI3Kδ (p110δ/p85α) = target: T1, PI3Kδ (p110δ/p85α) (Homo sapiens, UniProt O00329); assay: PI3Kδ scintillation proximity assay (enzyme assay A); assay type: biochemical; conditions: 20 μM PIP2, 20 μM ATP, 4 nM PI3Kδ, 210 minutes, room temperature; read-out: IC50 data for PI3Kδ enzyme assay A (PI3Kd Enzyme Assay A)
T1 construct: purchased Millipore (Bedford, Mass.)
T1 sequence (O00329 whole entry): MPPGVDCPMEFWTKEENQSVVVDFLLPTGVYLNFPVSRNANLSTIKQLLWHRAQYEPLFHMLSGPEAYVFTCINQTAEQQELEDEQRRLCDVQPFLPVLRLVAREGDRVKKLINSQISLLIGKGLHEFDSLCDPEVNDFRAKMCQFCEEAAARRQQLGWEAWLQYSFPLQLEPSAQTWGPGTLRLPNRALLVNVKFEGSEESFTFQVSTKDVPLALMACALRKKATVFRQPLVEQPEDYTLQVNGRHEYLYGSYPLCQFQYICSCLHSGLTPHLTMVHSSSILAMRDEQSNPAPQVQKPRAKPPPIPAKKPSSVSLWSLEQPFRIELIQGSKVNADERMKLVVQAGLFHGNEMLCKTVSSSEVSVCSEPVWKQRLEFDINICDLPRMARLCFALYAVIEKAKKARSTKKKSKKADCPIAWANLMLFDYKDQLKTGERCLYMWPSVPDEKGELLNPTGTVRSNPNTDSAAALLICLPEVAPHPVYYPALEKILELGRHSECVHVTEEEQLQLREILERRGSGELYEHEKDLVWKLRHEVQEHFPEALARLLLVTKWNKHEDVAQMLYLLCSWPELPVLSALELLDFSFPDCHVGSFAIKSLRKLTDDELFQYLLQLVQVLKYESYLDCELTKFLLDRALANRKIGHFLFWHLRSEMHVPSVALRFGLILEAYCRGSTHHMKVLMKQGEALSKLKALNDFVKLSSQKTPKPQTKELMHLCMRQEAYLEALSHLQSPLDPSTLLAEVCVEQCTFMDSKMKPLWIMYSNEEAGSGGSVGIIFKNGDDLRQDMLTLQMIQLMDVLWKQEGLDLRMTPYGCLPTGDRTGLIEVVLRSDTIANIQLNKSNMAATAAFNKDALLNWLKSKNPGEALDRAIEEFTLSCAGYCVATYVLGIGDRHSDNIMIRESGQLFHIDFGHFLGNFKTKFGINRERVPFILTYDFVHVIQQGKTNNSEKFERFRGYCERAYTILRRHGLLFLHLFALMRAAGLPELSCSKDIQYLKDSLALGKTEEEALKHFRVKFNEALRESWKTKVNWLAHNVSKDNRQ
T1 sequence (P27986 whole entry partner): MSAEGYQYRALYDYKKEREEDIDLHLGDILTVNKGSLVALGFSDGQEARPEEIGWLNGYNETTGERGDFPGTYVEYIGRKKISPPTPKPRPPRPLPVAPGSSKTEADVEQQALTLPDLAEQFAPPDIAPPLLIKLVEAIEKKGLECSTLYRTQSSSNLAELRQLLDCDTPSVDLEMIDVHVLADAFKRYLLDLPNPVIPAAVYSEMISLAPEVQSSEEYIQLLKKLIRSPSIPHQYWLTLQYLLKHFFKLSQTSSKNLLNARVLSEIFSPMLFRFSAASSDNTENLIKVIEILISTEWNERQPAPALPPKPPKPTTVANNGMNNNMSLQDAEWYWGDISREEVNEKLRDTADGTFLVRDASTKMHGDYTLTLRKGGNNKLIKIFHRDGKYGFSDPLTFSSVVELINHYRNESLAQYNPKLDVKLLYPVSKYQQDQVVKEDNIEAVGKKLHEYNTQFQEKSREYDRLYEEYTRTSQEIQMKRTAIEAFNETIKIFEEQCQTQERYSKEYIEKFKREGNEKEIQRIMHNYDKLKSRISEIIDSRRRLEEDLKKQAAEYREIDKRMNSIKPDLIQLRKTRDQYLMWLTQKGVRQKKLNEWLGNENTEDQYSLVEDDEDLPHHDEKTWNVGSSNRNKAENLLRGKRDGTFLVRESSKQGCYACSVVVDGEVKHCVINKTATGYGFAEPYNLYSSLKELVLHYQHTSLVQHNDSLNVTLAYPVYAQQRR
Source text: Materials: [γ-^33P]ATP (10 mCi/mL) was purchased from PerkinElmer (Waltham, Mass.). Lipid kinase substrate, D-myo-Phosphatidylinositol 4,5-bisphosphate (PtdIns(4,5)P2)D (+)-sn-1,2-di-O-octanoylglyceryl, 3-O-phospho linked (PIP2), CAS 204858-53-7, was purchased from Echelon Biosciences (Salt Lake City, Utah). PI3Kδ (p110δ/p85α) was purchased from Millipore (Bedford, Mass.). ATP, MgCl2, DTT, EDTA, MOPS and CHAPS were purchased from Sigma-Aldrich (St. Louis, Mo.). Wheat Germ Agglutinin (WGA) YSi SPA Scintillation Beads was purchased from GE healthcare life sciences (Piscataway, N.J.).
Assay: The kinase reaction was conducted in polystyrene 384-well matrix white plate from Thermo Fisher Scientific in a final volume of 25 μL. Inhibitors were first diluted serially in DMSO and added to the plate wells before the addition of other reaction components. The final concentration of DMSO in the assay was 0.5%. The PI3K assays were carried out at room temperature in 20 mM MOPS, pH 6.7, 10 mM MgCl2, 5 mM DTT and CHAPS 0.03%. Reactions were initiated by the addition of ATP, the final reaction mixture consisted of 20 μM PIP2, 20 μM ATP, 0.2 μCi [γ-^33P] ATP, 4 nM PI3Kδ. Reactions were incubated for 210 minutes and terminated by the addition of 40 μL SPA beads suspended in quench buffer: 150 mM potassium phosphate pH 8.0, 20% glycerol. 25 mM EDTA, 400 μM ATP. The final concentration of SPA beads is 1.0 mg/mL. After the plate sealing, plates were shaken overnight at room temperature and centrifuged at 1800 rpm for 10 minutes, the radioactivity of the product was determined by scintillation counting on Topcount (PerkinElmer). IC50 determination was performed by fitting the curve of percent control activity versus the log of the inhibitor concentration using the GraphPad Prism 3.0 software.

B cells = assay: B cell proliferation assay ([3H]-thymidine incorporation, anti-human IgM stimulation); assay type: cell-based; conditions: 72 h, purified human B cells, goat F(ab')2 anti-human IgM 10 μg/ml, three days plus 12 hrs [3H]-thymidine
Protocol: To acquire B cells, human PBMC were isolated from the peripheral blood of normal, drug free donors by standard density gradient centrifugation on Ficoll-Hypague (GE Healthcare, Piscataway, N.J.) and incubated with anti-CD19 microbeads (Miltenyi Biotech, Auburn, Calif.). The B cells were then purified by positive immunosorting using an autoMacs (Miltenyi Biotech) according to the manufacture's instruction.
The purified B cells (2×10^5/well/200 μL) were cultured in 96-well ultra-low binding plates (Corning, Corning, N.Y.) in RPMI1640, 10% FBS and goat F(ab′)2 anti-human IgM (10 μg/ml) (Invitrogen, Carlsbad, Calif.), in the presence of different amount of test compounds, for three days. [^3H]-thymidine (1 μCi/well) (PerkinElmer, Boston, Mass.) in PBS was then added to the B cell cultures for an additional 12 hrs before the incorporated radioactivity was separated by filtration with water through GF/B filters (Packard Bioscience, Meriden, Conn.) and measured by liquid scintillation counting with a TopCount (Packard Bioscience). […] See Table 2 for data related to compounds of the invention.

| Compound | IC50 (PI3Kδ (p110δ/p85α)) | IC50 (B cells) |
| --- | --- | --- |
| Cc1cccc2nc(C(C)Nc3ncnc4[nH]cnc34)c(-c3cc(F)cc(F)c3)n12 (stereo not shown) [Example 1, N-{1-[3-(3,5-Difluorophenyl)-5-methylimidazo[1,2-a]pyridin-2-yl]ethyl}-9H-purin-6-amine] | < 200 nM | < 500 nM |
| CC(Nc1ncnc2[nH]cnc12)c1nc2sccn2c1-c1cc(F)cc(F)c1 (stereo not shown) [Example 3, N-{1-[5-(3,5-Difluorophenyl)imidazo[2,1-b][1,3]thiazol-6-yl]ethyl}-9H-purin-6-amine bis(trifluoroacetate)] | > 2000 nM | – |
| Cc1csc2nc(C(C)Nc3ncnc4[nH]cnc34)c(-c3cccc(F)c3)n12 (stereo not shown) [Example 4, N-{1-[5-(3-Fluorophenyl)-3-methylimidazo[2,1-b][1,3]thiazol-6-yl]ethyl}-9H-purin-6-amine bis(trifluoroacetate)] | 500 to 990 nM | 1000 to 2500 nM |
| Cc1cn2c(-c3cccc(F)c3)c(C(C)Nc3ncnc4[nH]cnc34)nc2s1 (stereo not shown) [Example 5, N-{1-[5-(3-Fluorophenyl)-2-methylimidazo[2,1-b][1,3]thiazol-6-yl]ethyl}-9H-purin-6-amine] | > 2000 nM | 2500 to 5000 nM |
| CC(Nc1ncnc2[nH]cnc12)c1nc2ccc(Cl)cn2c1-c1cccc(F)c1 (stereo not shown) [Example 6, N-{1-[6-Chloro-3-(3-fluorophenyl)imidazo[1,2-a]pyridin-2-yl]ethyl}-9H-purin-6-amine bis(trifluoroacetate)] | < 200 nM | < 500 nM |
| CC(Nc1ncnc2[nH]cnc12)c1nc2cccc(Cl)n2c1-c1cccc(F)c1 (stereo not shown) [Example 7, N-{1-[5-Chloro-3-(3-fluorophenyl)imidazo[1,2-a]pyridin-2-yl]ethyl}-9H-purin-6-amine tris(trifluoroacetate)] | < 200 nM | < 500 nM |
| Cc1ccc2nc(C(C)Nc3ncnc4[nH]cnc34)c(-c3cccc(F)c3)n2c1 (stereo not shown) [Example 8, N-{1-[3-(3-Fluorophenyl)-6-methylimidazo[1,2-a]pyridin-2-yl]ethyl}-9H-purin-6-amine bis(trifluoroacetate)] | 500 to 990 nM | 1000 to 2500 nM |
| Cc1cccn2c(-c3cccc(F)c3)c(C(C)Nc3ncnc4[nH]cnc34)nc12 (stereo not shown) [Example 10, N-{1-[3-(3-Fluorophenyl)-8-methylimidazo[1,2-a]pyridin-2-yl]ethyl}-9H-purin-6-amine bis(trifluoroacetate)] | < 200 nM | < 500 nM |
| CC(Nc1ncnc2[nH]cnc12)c1nc2c(Cl)cccn2c1-c1cccc(F)c1 (stereo not shown) [Example 11, N-{1-[8-Chloro-3-(3-fluorophenyl)imidazo[1,2-a]pyridin-2-yl]ethyl}-9H-purin-6-amine bis(trifluoroacetate)] | < 200 nM | 500 to 1000 nM |
| CC(Nc1ncnc2[nH]cnc12)c1nc2c(C(F)(F)F)cccn2c1-c1cccc(F)c1 (stereo not shown) [Example 15, N-{1-[3-(3-Fluorophenyl)-8-(trifluoromethyl)imidazo[1,2-a]pyridin-2-yl]ethyl}-9H-purin-6-amine bis(trifluoroacetate)] | 990 to 2000 nM | – |
| CC(Nc1ncnc2[nH]cnc12)c1nc2c(C#N)cccn2c1-c1cccc(F)c1 (stereo not shown) [Example 16, 3-(3-Fluorophenyl)-2-[1-(9H-purin-6-ylamino)ethyl]imidazo[1,2-a]pyridine-8-carbonitrile bis(trifluoroacetate)] | 990 to 2000 nM | – |
| CC(Nc1ncnc2[nH]cnc12)c1nn2ccccc2c1-c1cc(F)cc(F)c1 (stereo not shown) [Example 25, N-{1-[3-(3,5-Difluorophenyl)pyrazolo[1,5-a]pyridin-2-yl]ethyl}-9H-purin-6-amine trifluoroacetate] | < 200 nM | 500 to 1000 nM |

Further lines, with some results ahead:

| IC50 (PI3Kδ (p110δ/p85α)) | Compound | IC50 (B cells) |
| --- | --- | --- |
| < 200 nM | CC(Nc1ncnc2[nH]cnc12)c1nc2ccccn2c1-c1cccc(F)c1 (stereo not shown) [Example 2, N-{1-[3-(3-Fluorophenyl)imidazo[1,2-a]pyridin-2-yl]ethyl}-9H-purin-6-amine] | < 500 nM |
| > 2000 nM | Cc1ccn2c(-c3cccc(F)c3)c(C(C)Nc3ncnc4[nH]cnc34)nc2c1 (stereo not shown) [Example 9, N-{1-[3-(3-Fluorophenyl)-7-methylimidazo[1,2-a]pyridin-2-yl]ethyl}-9H-purin-6-amine bis(trifluoroacetate)] | > 5000 nM |
| < 200 nM | CC(Nc1ncnc2[nH]cnc12)c1nc2cc(Cl)ccn2c1-c1cccc(F)c1 (stereo not shown) [Example 13, N-{1-[7-Chloro-3-(3-fluorophenyl)imidazo[1,2-a]pyridin-2-yl]ethyl}-9H-purin-6-amine] | – |
| < 200 nM | CC(Nc1ncnc2[nH]cnc12)c1nc2c(F)cccn2c1-c1cccc(F)c1 (stereo not shown) [Example 14, N-{1-[8-Fluoro-3-(3-fluorophenyl)imidazo[1,2-a]pyridin-2-yl]ethyl}-9H-purin-6-amine] | 500 to 1000 nM |
| 500 to 990 nM | Cc1ccc(-c2c(C(C)Nc3ncnc4[nH]cnc34)nc3ccccn23)cc1 (stereo not shown) [Example 17, N-{1-[3-(4-Methylphenyl)imidazo[1,2-a]pyridin-2-yl]ethyl}-9H-purin-6-amine] | – |
| 200 to 500 nM | CC(Nc1ncnc2[nH]cnc12)c1nc2ccccn2c1-c1cccc(F)c1F (stereo not shown) [Example 18, N-{1-[3-(2,3-Difluorophenyl)imidazo[1,2-a]pyridin-2-yl]ethyl}-9H-purin-6-amine] | 1000 to 2500 nM |
| 200 to 500 nM | CC(Nc1ncnc2[nH]cnc12)c1nc2ccccn2c1-c1ccccc1F (stereo not shown) [Example 19, N-{1-[3-(2-Fluorophenyl)imidazo[1,2-a]pyridin-2-yl]ethyl}-9H-purin-6-amine] | < 500 nM |
| 990 to 2000 nM | Cc1ccccc1-c1c(C(C)Nc2ncnc3[nH]cnc23)nc2ccccn12 (stereo not shown) [Example 20, N-{1-[3-(2-Methylphenyl)imidazo[1,2-a]pyridin-2-yl]ethyl}-9H-purin-6-amine] | – |
| < 200 nM | CC(Nc1ncnc2[nH]cnc12)c1nc2ccccn2c1-c1cc(F)ccc1F (stereo not shown) [Example 21, N-{1-[3-(2,5-Difluorophenyl)imidazo[1,2-a]pyridin-2-yl]ethyl}-9H-purin-6-amine] | 2500 to 5000 nM |
| 500 to 990 nM | Cc1cccc(-c2c(C(C)Nc3ncnc4[nH]cnc34)nc3ccccn23)c1 (stereo not shown) [Example 22, N-{1-[3-(3-Methylphenyl)imidazo[1,2-a]pyridin-2-yl]ethyl}-9H-purin-6-amine] | – |
| 200 to 500 nM | CC(Nc1ncnc2[nH]cnc12)c1nc2ccccn2c1-c1cc(F)cc(F)c1 (stereo not shown) [Example 23, N-{1-[3-(3,5-Difluorophenyl)imidazo[1,2-a]pyridin-2-yl]ethyl}-9H-purin-6-amine] | 1000 to 2500 nM |
| 990 to 2000 nM | CC(Nc1ncnc2[nH]cnc12)c1nc2ccccn2c1-c1ccc(F)cc1 (stereo not shown) [Example 24, N-{1-[3-(4-Fluorophenyl)imidazo[1,2-a]pyridin-2-yl]ethyl}-9H-purin-6-amine] | – |
